In US8809529B2, “Imidazo[1,2-α]pyrazine derivatives” (Promega Corporation, priority 2010, dated 2014):
Where two headings read alike, the source gives them in different places.

Columns and labels:
OgLuc = target: T1, OgLuc (Oplophorus gracilirostris, UniProt Q9GV45, A31E/A60K/A81I/F95Y/I117V/L99Q/M102K/N193R/P142E/Q151K/Q38R/Q45L/V71I/Y165I); experiment: LOPAC library inhibition screen; format: biochemical; conditions: preliminary LOPAC screen with 9B8 variant, 20 μM substrate
T1 construct: 10 μL of purified 9B8, L27V or firefly luciferase (Luc2) enzyme; made in house
Method: To determine the susceptibility of the OgLuc variants to off-target interactions, the activity of the 9B8 and L27V variants was screened against a LOPAC (library of pharmacologically active compounds) library. A LOPAC 1280 library (Sigma) was prepared by diluting the compounds to 1 mM in DMSO. On the day of the assay, the compounds were diluted to 20 μM in 1×PBS, and 10 μL transferred to a 96-well, white plate. To each well, 10 μL of purified 9B8, L27V or firefly luciferase (Luc2) enzyme diluted 10^−4 in Glo Lysis Buffer (Promega Corp.) was added and incubated at room temperature for 2 min. […] For assaying firefly luciferase, the BRIGHT-GLO™ Assay reagent (Promega Corp.) was used according to the manufacturer's protocol. As a negative control, 8 wells of each plate contained 1×PBS+2% glycerol. As a positive control, 8 wells of each plate contained 2 mM Suramin in 2% DMSO or 2 mM luciferase inhibitor 1 in 2% DMSO (Calbiochem).

HEK293 cells [1] = conditions: human, 24 h
OgLuc variant 9B8 opt = target: T2, OgLuc variant 9B8 opt (Oplophorus gracilirostris, UniProt Q9GV45, A31E/A60K/A81I/F95Y/I117V/L99Q/M102K/N193R/P142E/Q151K/Q38R/Q45L/V71I/Y165I); experiment: Multiplex assay with red click beetle luciferase and 9B8 opt (modified DUAL-GLO); format: biochemical
T2 construct: made in house; host or cells: E. coli (crude lysate)
Method: A. Lysates of E. coli expressing the variant 9B8 opt were prepared as previously described in Example 27 and diluted 1000-fold in DMEM without phenol red+0.1% PRIONEX®. Luminescence from a sample containing 6.3 μg/mL of purified red click beetle luciferase and E. coli lysate expressing the variant 9B8 opt was detected using a modified DUAL-GLO® Luciferase Assay System (Promega Corp.). DUAL-GLO® STOP&GLO® Reagent containing 20 μM coelenterazine-h and DUAL-GLO® STOP&GLO® Reagent containing 20 μM PBI 3939 were used, according to the manufacturer's protocol, to detect the red click beetle luciferase and OgLuc variant 9B8 luciferase from a single sample. Three replicates were performed.
Luminescence was detected on a Turner MODULUS™ luminometer. […] The standard deviation (“+/−”) and coefficient of variance (“CV”) are also shown. A “no coelenterazine” control was performed to illustrate the amount of quenching of the red click beetle signal by the DUAL-GLO® STOP&GLO® Reagent of the DUAL-GLO® Luciferase Assay System in the absence of coelenterazine. The “no coelenterazine” control yielded a 349-fold quench.

OgLuc variant L27V = OgLuc variant L27V (Oplophorus gracilirostris, UniProt Q9GV45, A31E/A60N/A81I/F95D/I117V/K70R/L54V/L99Q/M102K/N193R/P142E/Q151K/Q38R/Q45L/V71I/Y165I); conditions: approximately 20 pM L27V, pH 6, 3 min at 22° C.
Method: To determine the Km of PBI-3939, the OgLuc variant L27V (described in Example 26) was purified via HALOTAG® fusion using the HALOTAG® Protein Purification System according to the manufacturer's instructions and diluted in DMEM without Phenol Red and 0.1% PRIONEX®. 50 μL assay buffer (100 mM MES pH 6, 35 mM Thiourea, 0.5% TERGITOL® NP-9 (v/v), 1 mM CDTA, 2 mM DTT and 150 mM KCl) with varying amounts of PBI-3939 was added to 50 μL diluted enzyme (approximately 20 pM final enzyme concentration), and luminescence measured at 3 min at 22° C.

L27V02 enzyme = target: T3, L27V02 enzyme (Oplophorus gracilirostris, UniProt Q9GV45, A31E/A60N/A81I/F95D/I117V/K70R/L54V/L99Q/M102K/N193R/P142E/Q151K/Q38R/Q45L/V71I/Y165I); experiment: Luminescence of compounds with purified L27V02 enzyme; format: biochemical; conditions: 20 μM compound, 36 pM L27V02, pH 7, 3 min
T3 construct: The N-terminus of the OgLuc variant L27V is methionine, valine and phenylalanine, i.e., MVF; made in house
Method: Compounds PBI-4525, PBI-4540 and PBI-4541 were screened for their ability to detect luminescence. […] The assay reagent was then mixed with 36 pM purified L27V02 enzyme (described in Example 25B), in DMEM without Phenol Red and 0.1% PRIONEX®. As a control, assay buffer with 20 μM PBI-3939 or PBI-4528 was used. Luminescence was measured as previously described 3 min after the assay reagent was added to the enzyme mixture.

HEK293 cells [2] = experiment: Live cell luminescence in HEK293 cells; format: cell-based, human; conditions: HEK293 cells expressing 9B8 opt, 60 μM
Method: A. The use of OgLuc variants and PBI-3939 in live cells was examined. HEK293 cells were plated in 96-well plates at 15,000 cells/well and grown overnight, at 37° C. The following day, the cells were transiently transfected using TRANSIT®-LT1 in 3 replicates with 100 ng of hRL or 9B8 opt in pF4Ag and grown overnight at 37° C. The following day the growth media was removed and replaced with media containing 60 μM VIVIREN™ Live Cell Substrate (Promega Corp.), 60 μM ENDUREN™ Live Cell Substrate (Promega Corp.), or 60 μM PBI-3939 for both hRL and 9B8 opt transfected cells. Non-transfected cells were used as background control. The plate was incubated at 37° C. during the course of one day and periodically measured on a TECAN® GENIOS™ Pro luminometer, i.e., 11 times over the course of 24 hrs.

[3] = Luminescence screen of OgLuc variants in lysed E. coli cells; format: biochemical; conditions: QC27-9a versus C1+A4E
Method: Resulting libraries were expressed in E. coli and primarily screened with a robotic system for OgLuc variants having increased light output (i.e., increased luminescence, increased brightness, or increased light emission) or a change in relative specificity compared to the corresponding starting OgLuc variant. The robotic primary screen was conducted as follows: individual colonies from the generated library were used to inoculate minimal media in 96-well plates and grown at 37° C. for 17 to 20 hrs (“M1 culture”). The M1 culture was diluted 1:20 with fresh minimal media and grown at 37° C. for 17-20 hrs (“M2 culture”). […] The use of the different induction media was determined based on the luminescence generated between C1+A4E and the novel coelenterazines, i.e., the induction media containing rhamnose and glucose were used with novel coelenterazines that generated less luminescence with C1+A4E compared to the other novel coelenterazines with C1+A4E.
Luminescence measurements for each variant were taken 3 min after reagent addition and relative luminescence unit (RLU) values were normalized to an average of 8 control wells of the corresponding starting OgLuc variant for each plate. […]

HEK293 cells [4] = experiment: Toxicity of coelenterazines in HEK293 cells (CELLTITER-GLO); conditions: 24 hrs after compound addition
HEK293 cells [5] = experiment: Luminescence of luciferases in lysed HEK293 cells (codon optimization); format: cell-based, human
Method: Codon optimized versions of IV (“IV opt” (SEQ ID NO: 22) and “IV optB” (SEQ ID NO: 23)) and 9B8 (“9B8 opt” (SEQ ID NO: 24) and “9B8 optB” (SEQ ID NO: 25)) were generated and cloned into pF4Ag by methods known in the art. HEK293 cells were plated in 96-well plates at 15,000 cells/well and grown overnight at 37° C. The following day, the cells were transiently transfected in 6 well replicates using TRANSIT®-LT1 Transfection Reagent (Minis Bio) with 100 ng of plasmid DNA encoding the codon optimized versions in pF4Ag and grown overnight at 37° C. HEK293 cells were also transfected with either pGL4.13 (Luc2/SV40) (Paguio et al., “pGL4 Vectors: A New Generation of Luciferase Reporter Vectors” Promega Notes, 89:7-10 (2005)) or pGL4.73 (hRL/SV40) (Id.) to normalize for differences in transfection efficiency. Ten ng/transfection or 10% of the total DNA transfected was used.
The OgLuc variants had higher luminescence compared to Luc2 and hRL.

T2 sequence (Q9GV45 other isoform, or with tags, fused parts or gaps with the stated changes): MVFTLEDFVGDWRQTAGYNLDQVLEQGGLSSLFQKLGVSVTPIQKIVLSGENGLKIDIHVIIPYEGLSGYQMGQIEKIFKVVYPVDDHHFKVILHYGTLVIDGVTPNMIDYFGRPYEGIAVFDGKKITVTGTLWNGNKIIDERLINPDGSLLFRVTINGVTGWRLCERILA
T1 sequence (Q9GV45 other isoform, or with tags, fused parts or gaps with the stated changes): as above
T3 sequence (Q9GV45 28-196 with tags or gaps with the stated changes limits assumed, one chain of several): as the sequence (Q9GV45 other isoform, or with tags, fused parts or gaps with the stated changes) above, with L29V, K35N, K45R, Y70D counted along it

## Cc1ccc(C(=O)Nc2ccc(S(=O)(=O)O)c3cc(S(=O)(=O)O)cc(S(=O)(=O)O)c23)cc1NC(=O)c1cccc(NC(=O)Nc2cccc(C(=O)Nc3cc(C(=O)Nc4ccc(S(=O)(=O)O)c5cc(S(=O)(=O)O)cc(S(=O)(=O)O)c45)ccc3C)c2)c1 [Suramin]
OgLuc
  inhibition of OgLuc: inhibitor of OgLuc

## O=c1c(Cc2ccco2)nc2c(Cc3ccccc3)[nH]c(-c3ccccc3)cn1-2 [PBI-3939, 8-benzyl-2-(furan-2-ylmethyl)-6-phenylimidazo[1,2-a]pyrazin-3(7H)-one]
HEK293 cells [1]
  Viability (normalized to vehicle (DMSO) control) (%): 89%
OgLuc variant 9B8 opt; 20 μM substrate in DUAL-GLO STOP&GLO Reagent
  Ogluc (average luminescence generated by 9B8 opt): 2,996,940
OgLuc variant 9B8 opt; Ogluc signal relative to no coelenterazine control
  +/− coel: 207
OgLuc variant L27V
  Km: ~10 µM
L27V02 enzyme
  RLU: 9,808,880 RLU
HEK293 cells [2]
  cell permeation: can permeate cells in culture
other
  Stability (pH 8) (T90 in hrs): 4.1 hrs

## O=c1c(Cc2ccc(O)cc2)nc2c(C3CC3)[nH]c(-c3ccccc3)cn1-2 [PBI-3897, 8-cyclopropyl-2-(4-hydroxybenzyl)-6-phenylimidazo[1,2-a]pyrazin-3(7H)-one]
HEK293 cells [1]
  Viability (normalized to vehicle (DMSO) control) (%): 100%
[3]
  Change in relative specificity (novel coelenterazine/native coelenterazine): 80,000X

## CC(C)c1[nH]c(-c2ccccc2)cn2c(=O)c(Cc3ccc(O)cc3)nc1-2 [PBI-3841]
HEK293 cells [4]
  Viability (normalized to vehicle (DMSO) control) (%): 100%
[3]
  Change in relative specificity (novel coelenterazine/native coelenterazine): 350,000X

B1: Luc2: a firefly luciferase (protein, listed as Photinus pyralis)
chain: MEDAKNIKKGPAPFYPLEDGTAGEQLHKAMKRYALVPGTIAFTDAHIEVDITYAEYFEMSVRLAEAMKRYGLNTNHRIVVCSENSLQFFMPVLGALFIGVAVAPANDIYNERELLNSMGISQPTVVFVSKKGLQKILNVQKKLPIIQKIIIMDSKTDYQGFQSMYTFVTSHLPPGFNEYDFVPESFDRDKTIALIMNSSGSTGLPKGVALPHRTACVRFSHARDPIFGNQIIPDTAILSVVPFHHGFGMFTTLGYLICGFRVVLMYRFEEELFLRSLQDYKIQSALLVPTLFSFFAKSTLIDKYDLSNLHEIASGGAPLSKEVGEAVAKRFHLPGIRQGYGLTETTSAILITPEGDDKPGAVGKVVPFFEAKVVDLDTGKTLGVNQRGELCVRGPMIMSGYVNNPEATNALIDKDGWLHSGDIAYWDEDEHFFIVDRLKSLIKYKGYQVAPAELESILLQHPNIFDAGVAGLPDDDAGELPAAVVVLEHGKTMTEKEIVDYVASQVTTAKKLRGGVVFVDEVPKGLTGKLDARKIREILIKAKKGGKIAV
HEK293 cells [5]
  luminescence relative to hRL: approximately 14 fold
